Experimental data as given in the supplement of paper PMC13380429.

What was measured:
[1] = tested on: A549-ACE2 infected with SARS-CoV-2; assay: cell count relative to DMSO; higher = less toxic; conditions: 24 h
Caco-2 [2] = assay: cell viability relative to DMSO; higher = less toxic; conditions: 72 h
Calu-3 [3] = assay: as above; conditions: 72 h
HepG2 [4] = assay: as above; conditions: 72 h
U2OS [5] = assay: as above; conditions: 72 h
Vero E6 [6] = assay: as above; conditions: 72 h
[7] = tested on: A549-ACE2 infected with SARS-CoV-2; assay: SARS-CoV-2 infection rate relative to DMSO; higher = more infection; conditions: 24 h
A549-ACE2 = assay: drug-induced phospholipidosis relative to tamoxifen; higher = more phospholipidosis
[8] = tested on: A549-ACE2 infected with SARS-CoV-2; assay: morphology score (similarity to uninfected cells); higher = more like uninfected cells; conditions: 24 h
Caco-2 [9] = assay: relative viability EC50 (midpoint between 100% and the lowest measured viability); higher = less toxic; conditions: 72 h
Calu-3 [10] = assay: as above; conditions: 72 h
U2OS [11] = assay: as above; conditions: 72 h
Caco-2 [12] = assay: drug sensitivity score (DSS) for viability; higher = more toxic; extreme values may be limits of the assay; conditions: 72 h
Calu-3 [13] = assay: as above; conditions: 72 h
HepG2 [14] = assay: as above; conditions: 72 h
U2OS [15] = assay: as above; conditions: 72 h
Vero E6 [16] = assay: as above; conditions: 72 h
HepG2 [17] = assay: relative viability EC50 (midpoint between 100% and the lowest measured viability); higher = less toxic; conditions: 72 h
Vero E6 [18] = assay: as above; conditions: 72 h

O=C(NCc1ccccc1)c1csc(Nc2ccncn2)n1 [thiazovivin]
Conditions | SARS-CoV-2 infection rate, [7] [%] | cell count, [1] [%] | cell viability, Caco-2 [2] [%] | cell viability, Calu-3 [3] [%] | cell viability, HepG2 [4] [%] | cell viability, U2OS [5] [%] | cell viability, Vero E6 [6] [%] | morphology score, [8]
1 nM | – | – | 95.1 | 102 | 90.1 | 105 | 101 | –
10 nM | – | – | 96.8 | 95.5 | 97.8 | 100 | 101 | –
0.1 µM | 98 | 115 | – | – | – | – | – | 0.31
100 nM | – | – | 97.3 | 109 | 101 | 100 | 99.1 | –
0.3 µM | 101 | 108 | – | – | – | – | – | 0.18
1 µM | 98 | 90 | – | – | – | – | – | 0.16
1000 nM | – | – | 100 | 126 | 93.8 | 93.9 | 88.7 | –
3 µM | 108 | 88 | – | – | – | – | – | -0.1
10000 nM | – | – | 88.4 | 138 | 73.9 | 85.9 | 64.7 | –

drug-induced phospholipidosis [%], A549-ACE2
Conditions | 0.3 µM | 0.833333 µM | 3.33333 µM | 6.66667 µM | 10 µM | 30 µM
24 h | -0.85 | -1.1 | -1.59 | -0.13 | 1.72 | 4.97
48 h | -1.39 | -3.9 | -3.92 | -1.45 | -1.05 | 3.79
72 h | -0.652 | -4.81 | -3.84 | -1.69 | 1.23 | –

Conditions | drug sensitivity score | relative viability EC50 [µM]
Caco-2 [9] | – | > 10
Caco-2 [12] | 0 | –
Calu-3 [10] | – | > 10
Calu-3 [13] | 0 | –
HepG2 [14] | 1.9 | –
U2OS [11] | – | > 10
U2OS [15] | 0.6 | –
Vero E6 [16] | 3.3 | –

CCN(CC)C(=S)SSC(=S)N(CC)CC [disulfiram]
Conditions | SARS-CoV-2 infection rate, [7] [%] | cell count, [1] [%] | cell viability, Caco-2 [2] [%] | cell viability, Calu-3 [3] [%] | cell viability, HepG2 [4] [%] | cell viability, U2OS [5] [%] | cell viability, Vero E6 [6] [%] | morphology score, [8]
1 nM | – | – | 103 | 101 | 104 | 100 | 108 | –
10 nM | – | – | 90.1 | 90.5 | 103 | 99.6 | 104 | –
100 nM | – | – | 19.1 | 94.7 | 53.2 | 99 | 101 | –
0.3 µM | 84 | 105 | – | – | – | – | – | 0.44
1000 nM | – | – | 9.6 | 36.9 | 13.7 | 78 | 89.3 | –
3 µM | 76 | 106 | – | – | – | – | – | 0.45
10 µM | 27 | 63 | – | – | – | – | – | 0.51
10000 nM | – | – | 75.3 | 106 | 95 | 94.6 | 99.6 | –
30 µM | 32 | 58 | – | – | – | – | – | 0.35

drug-induced phospholipidosis [%], A549-ACE2
Conditions | 0.3 µM | 0.833333 µM | 3.33333 µM | 6.66667 µM | 10 µM | 30 µM
24 h | 2.43 | -1.42 | 2.59 | -0.54 | 2.87 | 7.83
48 h | – | – | – | -0.28 | 1.88 | –
72 h | – | – | – | 1.75 | 1.77 | –

Conditions | drug sensitivity score | relative viability EC50 [µM]
Caco-2 [9] | – | 0.0314
Caco-2 [12] | 27.5 | –
Calu-3 [10] | – | > 10
Calu-3 [13] | 0 | –
HepG2 [14] | 21.4 | –
HepG2 [17] | – | 0.0936
U2OS [11] | – | > 10
U2OS [15] | 0.2 | –
Vero E6 [16] | 0 | –
Vero E6 [18] | – | > 10
